Measurements taken from ChEMBL document CHEMBL1128024, “Carbocyclic analogues of hydroxyethylamine containing inhibitors of HIV proteinase” (Bioorg Med Chem Lett, 1994).

The molecules below were run on Human immunodeficiency virus (assay: In vitro antiviral activity against human immuno deficiency virus was determined). Details: Human immunodeficiency virus 1.
Assay type: functional, organism-based

Row | SMILES | IC50
1 | CC(C)(C)NC(=O)[C@@H]1CCCC[C@H]1C[C@@H](O)[C@H](Cc1ccccc1)NC(=O)[C@H](CC(N)=O)NC(=O)OCc1ccccc1 (mixture of isomers) | 40 nM
2 | CC(C)(C)NC(=O)[C@@H]1CCCCN1C[C@@H](O)[C@H](Cc1ccccc1)NC(=O)[C@H](CC(N)=O)NC(=O)c1ccc2ccccc2n1 | 17 nM
3 | CC(C)(C)NC(=O)[C@@H]1CCCC[C@@H]1C[C@@H](O)[C@H](Cc1ccccc1)NC(=O)[C@H](CC(N)=O)NC(=O)OCc1ccccc1 | 1000 nM
4 | CC(C)(C)NC(=O)[C@@H]1CCCCN1C[C@@H](O)[C@H](Cc1ccccc1)NC(=O)[C@H](CC(N)=O)NC(=O)OCc1ccccc1 | 300 nM

Continued by falling IC50, values first:

Row | IC50 | SMILES
5 | 4 nM | CC(C)(C)NC(=O)[C@@H]1CCCC[C@H]1C[C@@H](O)[C@H](Cc1ccccc1)NC(=O)[C@H](CC(N)=O)NC(=O)c1ccc2ccccc2n1
6 | 2 nM | CC(C)(C)NC(=O)[C@@H]1C[C@@H]2CCCCC2CN1C[C@@H](O)[C@H](Cc1ccccc1)NC(=O)[C@H](CC(N)=O)NC(=O)c1ccc2ccccc2n1 (single isomer, unassigned)

What follows are molecules tested against Human immunodeficiency virus type 1 protease (Human immunodeficiency virus 1, UniProt Q72874) (assay: Inhibitory activity against HIV-1 Protease was determined). Details: not given.

Row | SMILES | IC50
7 | CC(C)(C)NC(=O)[C@@H]1CCCCN1C[C@@H](O)[C@H](Cc1ccccc1)NC(=O)[C@H](CC(N)=O)NC(=O)c1ccc2ccccc2n1 | 2 nM
